Molecular target: T1, Human T-type calcium channel (Cav 3.2) (Homo sapiens, UniProt O95180)
T1 construct: Edward Perez-Reyes, University of Virginia, USA; host or cells: HEK293
Test: Calcium Influx Inhibition Assay
Assay type: cell-based
Conditions: human T-type calcium channel (Cav 3.2) expressing HEK293 cells; FLIPR Calcium 4 fluorescence; 30 min compound incubation; read-out: T-type calcium channel inhibition concentration IC50
Experimental: 1. Calcium Influx Inhibition Assay Human T-type calcium channel (Cav 3.2) expressing HEK293 cells were introduced from Prof. Edward Perez-Reyes, University of Virginia, USA. The calcium-sensitive fluorescent dye used was FLIPR Calcium 4 Assay Kit (Molecular Devices). To a black 96-well plate with a clear bottom coated with type I collagen, the human T-type calcium channel (Cav 3.2) expressing HEK293 cells were seeded and cultured overnight, and the culture medium was removed. A solution of the calcium-sensitive fluorescent dye was added, and the resultant plate was incubated at 37° C. in an atmosphere of 5% carbon dioxide for 30 minutes. To the plate, a diluted solution of a compound was added, and subjected to further incubation at 37° C. in an atmosphere of 5% carbon dioxide for 30 minutes. While fluorescence was continuously analyzed from the bottom with a FlexStation 3 (Molecular Devices), a calcium solution was added. […] Based on the rise value in the fluorescence from the base line, the inhibition percentage was calculated. The logarithms of compound concentrations were plotted with respect to the inhibition activities to obtain an IC50 value.

T1 sequence (O95180 whole entry): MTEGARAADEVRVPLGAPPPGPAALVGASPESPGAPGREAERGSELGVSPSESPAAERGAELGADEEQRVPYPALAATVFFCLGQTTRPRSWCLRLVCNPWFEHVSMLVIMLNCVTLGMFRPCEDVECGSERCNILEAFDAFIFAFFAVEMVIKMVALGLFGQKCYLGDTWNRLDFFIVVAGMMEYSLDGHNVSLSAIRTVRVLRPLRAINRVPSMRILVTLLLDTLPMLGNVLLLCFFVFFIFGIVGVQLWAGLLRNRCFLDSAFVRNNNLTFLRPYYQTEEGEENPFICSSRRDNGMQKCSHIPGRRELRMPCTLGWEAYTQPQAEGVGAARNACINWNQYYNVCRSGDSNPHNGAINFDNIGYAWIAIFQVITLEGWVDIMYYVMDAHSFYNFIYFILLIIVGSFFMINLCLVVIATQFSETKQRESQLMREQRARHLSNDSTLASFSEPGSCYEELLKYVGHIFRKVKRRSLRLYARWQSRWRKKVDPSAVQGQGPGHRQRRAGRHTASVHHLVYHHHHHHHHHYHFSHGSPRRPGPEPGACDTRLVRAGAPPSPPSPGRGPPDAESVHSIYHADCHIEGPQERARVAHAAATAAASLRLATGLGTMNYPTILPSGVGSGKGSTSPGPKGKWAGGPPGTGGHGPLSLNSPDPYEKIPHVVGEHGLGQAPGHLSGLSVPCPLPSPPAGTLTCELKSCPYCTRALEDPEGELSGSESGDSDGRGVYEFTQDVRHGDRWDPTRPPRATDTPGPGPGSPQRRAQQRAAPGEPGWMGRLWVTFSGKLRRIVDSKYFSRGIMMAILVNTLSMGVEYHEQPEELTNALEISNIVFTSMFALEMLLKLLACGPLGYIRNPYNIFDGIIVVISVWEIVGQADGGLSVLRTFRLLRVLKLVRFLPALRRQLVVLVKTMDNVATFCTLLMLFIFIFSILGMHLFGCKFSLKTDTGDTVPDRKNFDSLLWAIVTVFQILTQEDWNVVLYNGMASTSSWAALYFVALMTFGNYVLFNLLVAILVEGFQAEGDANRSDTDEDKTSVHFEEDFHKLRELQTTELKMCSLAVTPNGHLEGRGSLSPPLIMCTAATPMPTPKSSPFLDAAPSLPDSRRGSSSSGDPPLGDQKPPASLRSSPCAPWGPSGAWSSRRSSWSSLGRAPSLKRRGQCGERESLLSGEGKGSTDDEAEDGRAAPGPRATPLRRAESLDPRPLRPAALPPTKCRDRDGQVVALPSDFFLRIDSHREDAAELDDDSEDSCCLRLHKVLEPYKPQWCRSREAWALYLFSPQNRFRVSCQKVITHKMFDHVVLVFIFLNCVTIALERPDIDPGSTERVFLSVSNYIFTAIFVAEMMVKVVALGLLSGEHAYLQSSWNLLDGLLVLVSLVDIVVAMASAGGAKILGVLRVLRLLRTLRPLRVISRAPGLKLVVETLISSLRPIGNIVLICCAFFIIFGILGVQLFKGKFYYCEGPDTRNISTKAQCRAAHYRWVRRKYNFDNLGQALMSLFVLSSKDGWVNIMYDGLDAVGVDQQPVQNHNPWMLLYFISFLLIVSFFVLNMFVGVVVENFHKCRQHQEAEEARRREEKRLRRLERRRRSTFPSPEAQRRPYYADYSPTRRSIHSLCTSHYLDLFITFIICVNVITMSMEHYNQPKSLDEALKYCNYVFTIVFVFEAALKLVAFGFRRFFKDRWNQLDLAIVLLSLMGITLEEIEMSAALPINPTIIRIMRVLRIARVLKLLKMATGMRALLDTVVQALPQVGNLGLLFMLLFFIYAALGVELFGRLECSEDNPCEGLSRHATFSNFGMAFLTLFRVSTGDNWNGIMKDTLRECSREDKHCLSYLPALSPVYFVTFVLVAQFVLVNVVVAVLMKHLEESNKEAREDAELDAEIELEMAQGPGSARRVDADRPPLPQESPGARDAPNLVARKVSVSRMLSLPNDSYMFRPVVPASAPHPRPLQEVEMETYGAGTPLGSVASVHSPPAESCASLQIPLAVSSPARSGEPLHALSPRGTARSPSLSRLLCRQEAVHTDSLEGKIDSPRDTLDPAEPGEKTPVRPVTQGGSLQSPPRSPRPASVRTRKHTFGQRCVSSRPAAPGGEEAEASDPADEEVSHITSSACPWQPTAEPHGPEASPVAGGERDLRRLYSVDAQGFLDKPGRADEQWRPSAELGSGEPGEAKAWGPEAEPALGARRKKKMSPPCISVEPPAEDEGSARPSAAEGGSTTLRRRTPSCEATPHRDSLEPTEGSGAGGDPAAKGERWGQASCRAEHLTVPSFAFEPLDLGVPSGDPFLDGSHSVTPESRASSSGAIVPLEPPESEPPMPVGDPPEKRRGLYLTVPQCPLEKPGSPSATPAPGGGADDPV

IC50	SMILES
27 nM	O=c1nc(N2CCN(c3ccc(F)cc3)CC2)cnn1Cc1ccc(C(F)(F)F)s1 [Synthesis Example 5, 5-[4-(4-Fluorophenyl)piperazin-1-yl]-2-{[5-(trifluoromethyl)thiophen-2-yl]methyl}-1,2,4-triazin-3(2H)-one]
54 nM	O=c1nc(N2CC=C(c3ccc(F)c(Cl)c3)[C@@H](O)C2)cnn1Cc1cnc(C(F)(F)F)s1 [Synthesis Example 43, (R)-5-[4-(3-Chloro-4-fluorophenyl)-5-hydroxy-5,6-dihydropyridin-1(2H)-yl]-2-{[2-(trifluoromethyl)thiazol-5-yl]methyl}-1,2,4-triazin-3(2H)-one]
24 nM	O=c1nc(N2CC=C(c3ccc(F)cc3)CC2)cnn1Cc1ccc(C(F)(F)F)s1 [Synthesis Example 6, 5-[4-(4-Fluorophenyl)-5,6-dihydropyridine-1(2H)-yl]-2-{[5-(trifluoromethyl)thiophen-2-yl]methyl}-1,2,4-triazin-3(2H)-one]
2900 nM	CCOc1ccc2c(c1)C(O)CN(c1cnn(Cc3cnc(C(F)(F)F)s3)c(=O)n1)C2 (stereo not drawn) [Synthesis Example 18, 5-[6-Ethoxy-4-hydroxy-3,4-dihydroisoquinolin-2(1H)-yl]-2-{[2-(trifluoromethyl)thiazol-5-yl]methyl}-1,2,4-triazin-3(2H)-one]
3.4 nM	NC1CN(c2cnn(Cc3ccc(C(F)(F)F)s3)c(=O)n2)CC=C1c1ccc(F)cc1 (stereo not drawn) [Synthesis Example 36, 5-[5-Amino-4-(4-fluorophenyl)-5,6-dihydropyridin-1(2H)-yl]-2-{[5-(trifluoromethyl)thiophen-2-yl]methyl}-1,2,4-triazin-3(2H)-one]
4900 nM	Cn1cc(C2=CCN(c3cnn(Cc4cnc(C(F)(F)F)s4)c(=O)n3)C[C@@H]2O)cn1 [Synthesis Example 24, (R)-5-[5-Hydroxy-4-(1-methyl-1H-pyrazol-4-yl)-5,6-dihydropyridin-1(2H)-yl]-2-{[2-(trifluoromethyl)thiazol-5-yl]methyl}-1,2,4-triazin-3(2H)-one]
12 nM	COc1nc(C2=CCN(c3cnn(Cc4ccc(C(F)(F)F)s4)c(=O)n3)C[C@@H]2O)ccc1Cl [Synthesis Example 29, (R)-5-[5-Chloro-5′-hydroxy-6-methoxy-5′,6′-dihydro-(2,4′-bipyridine)-1′(2′H)-yl]-2-{[5-(trifluoromethyl)thiophen-2-yl]methyl}-1,2,4-triazin-3(2H)-one]
2200 nM	COc1ccc2c(c1)CCN(c1cnn(Cc3cnc(C(F)(F)F)s3)c(=O)n1)C2C (stereo not drawn) [Synthesis Example 19]
69 nM	Cc1cc(N2CCN(c3cnn(Cc4ccc(C(F)(F)F)s4)c(=O)n3)CC2)cs1 [Synthesis Example 40, 5-[4-(5-Methylthiophen-3-yl)piperazin-1-yl]-2-{[5-(trifluoromethyl)thiophen-2-yl]methyl}-1,2,4-triazin-3(2H)-one]
200 nM	Cc1csc(C2=CCN(c3cnn(Cc4cnc(C(F)(F)F)s4)c(=O)n3)C[C@@H]2O)c1 [Synthesis Example 17]
130 nM	O=c1nc(N2CC=C(c3ccc(F)cc3)[C@@H](O)C2)cnn1Cc1ccc(C(F)(F)F)o1 [Synthesis Example 27, (R)-5-[4-(4-Fluorophenyl)-5-hydroxy-5,6-dihydropyridin-1(2H)-yl]-2-{[5-(trifluoromethyl)furan-2-yl]methyl}-1,2,4-triazin-3(2H)-one]
1300 nM	Cn1ccc(C2=CCN(c3cnn(Cc4ccc(C(F)(F)F)s4)c(=O)n3)CC2)n1 [Synthesis Example 39, 5-[4-(1-Methyl-1H-pyrazol-3-yl)-5,6-dihydropyridin-1(2H)-yl]-2-{[5-(trifluoromethyl)thiophen-2-yl]methyl}-1,2,4-triazin-3(2H)-one]
230 nM	O=c1nc(N2CCN(c3ccc(F)c(Cl)c3)CC2)cnn1Cc1cnc(C(F)(F)F)s1 [Synthesis Example 21, 5-[4-(3-Chloro-4-fluorophenyl)piperazin-1-yl]-2-{[2-(trifluoromethyl)thiazol-5-yl]methyl}-1,2,4-triazin-3(2H)-one]
32 nM	Cc1nc(N2CCN(c3cnn(Cc4ccc(C(F)(F)F)s4)c(=O)n3)CC2)ccc1F [Synthesis Example 33]
6 nM	O=c1nc(N2CC=C(c3ccc(F)cc3)[C@@H](O)C2)cnn1Cc1ccc(C(F)(F)F)s1 [Synthesis Example 7, (R)-5-[4-(4-Fluorophenyl)-5-hydroxy-5,6-dihydropyridin-1(2H)-yl]-2-{[5-(trifluoromethyl)thiophene-2-yl]methyl}-1,2,4-triazin-3(2H)-one]
62 nM	CC(C)(C)c1ncc(Cn2ncc(N3CC=C(c4ccc(F)cc4)[C@@H](O)C3)nc2=O)o1 [Synthesis Example 50, (R)-2-{[2-(Tert-butyl)oxazol-5-yl]methyl}-5-[4-(4-fluorophenyl)-5-hydroxy-5,6-dihydropyridin-1(2H)-yl]-1,2,4-triazin-3(2H)-one]
30 nM	O=c1nc(N2CC=C(c3ccc(F)cc3)[C@@H](O)C2)cnn1Cc1cnc(C(F)(F)F)s1 [Synthesis Example 11, (R)-5-[4-(4-Fluorophenyl)-5-hydroxy-5,6-dihydropyridin-1(2H)-yl]-2-{[2-(trifluoromethyl)thiazol-5-yl]methyl}-1,2,4-triazin-3(2H)-one]
29 nM	O=c1nc(N2CCN(c3ccc(Cl)cc3)CC2)cnn1Cc1ccc(C(F)(F)F)s1 [Synthesis Example 41, 5-[4-(4-Chlorophenyl)piperazin-1-yl]-2-{[5-(trifluoromethyl)thiophen-2-yl]methyl}-1,2,4-triazin-3(2H)-one]
